The values that follow come from the NIST ThermoML archive (doi:10.1016/j.fluid.2012.11.029).

Numbers after ± are expanded uncertainties.

The conditions of data set [1]: Crystal; DTA.
Data set [2] is described as follows: Molar enthalpy of transition or fusion. As to conditions: Crystal; DSC.

In the case of `CCCCCCCCCC[N+](C)(C)CCCCCCCCCC.O=[N+]([O-])[O-]` [Didecyldimethylammonium nitrate], in data set [1], the Normal melting temperature came to 31.7 ± 1.1 °C. Moreover, in data set [2], the “Molar enthalpy of transition or fusion” value came to 2.33 ± 0.0789 kcal/mol.
`NNC(=O)c1ccncc1` [isonicotinic acid hydrazide]: the Normal melting temperature in data set [1] turned out to be 172.69 ± 1.1 °C. Also, the “Molar enthalpy of transition or fusion” value in data set [2] stood at 6.67 ± 0.191 kcal/mol.
As for `NC(=O)c1cnccn1` [pyrazinecarboxamide], in data set [1], the Normal melting temperature is 188.27 ± 1.1 °C. For the same compound, the “Molar enthalpy of transition or fusion” value in data set [2] amounted to 6.72 ± 0.191 kcal/mol.
